Patent publication US20230074200A1 (priority 2021, published 2023)
Values joined by “and” are separate entries in the source; they are usually repeats but may differ in a detail not shown here. Equal values may be shown once. Read-outs that look alike come from different tables or passages of the source.

Assays:
[1] = tested on: rats lethally challenged with 110 U/kg BoNT/A (2.5 LD50); settings: rat, in vivo
[2] = rat, in vivo, sc, 2 mg/kg
BoNT/A-intoxicated mice = settings: mouse, in vivo; cited from earlier work
[3] = tested on: diaphragm motor endplates of BoNT/A intoxicated rats; settings: rat, in vivo
[4] = rat, in vivo
[5] = tested on: isolated mouse diaphragms poisoned by multiple BoNT serotypes; settings: cited from earlier work
[6] = rat, in vivo; for behavioral seizure (%) / gait change (%) / max Racine score / mortality (%) / salivation (%): sc
[7] = rat, in vivo; for behavioral seizure (%) / gait change (%) / max Racine score / mortality (%) / salivation (%): sc; remark: listed apart in the source
[8] = tested on: rats lethally intoxicated with 2.5 LD50 BoNT/A; settings: rat, in vivo

For `Nc1ccncc1N` [3,4-DAP, 3,4-diaminopyridine], the “survival rate at the final injection” value [1] was 100%, the “time to reduction of toxic signs compared to vehicle” value [1] was at most 30 min and the “time after cessation of treatment at which toxic signs worsened” value ([1]; 2 mg/kg) was “approximately 1.5 h”. For the same compound, the “time of death after the final injection” value ([1]; 2 mg/kg) was 2 to 4 h, the VO2 [2] was “transient increases” and the respiratory rate [2] was “transient increases”. For the same compound, the tidal volume [2] was “transient increases”, the “respiratory and skeletal muscle weakness” value (BoNT/A-intoxicated mice) was “reversed respiratory and skeletal muscle weakness” and the “respiratory function and survival” value (BoNT/A-intoxicated mice) was “improve respiratory function and prolong survival”. For the same compound, the “mean EPP success rate” value ([3]; 0.98 mg/kg) was 75.4±3.5%, the “mean EPP success rate” value ([3]; 1.44 mg/kg) was 60.5±5.3% and 79.7±2.5% and the “relationship between infusion dose rate and CSS (serum)” value [4] was “linearly related to infusion dose”. The muscle paralysis [5] was “reverse muscle paralysis”, the “physiological indicators of acute neurological toxicity” value ([6]; 2 mg/kg) was “did not elicit physiological indicators of acute neurological toxicity” and the “physiological indicators of acute neurological toxicity” value ([6]; 8 mg/kg) was “did not elicit physiological indicators of acute neurological toxicity”. The “behavioral seizure (%)” value ([6]; 1 mg/kg) was 0, 0%, the “gait change (%)” value ([6]; 1 mg/kg) was 0% and the “max Racine score” value ([6]; 1 mg/kg) was 0, 0. For the same compound, the “mortality (%)” value ([6]; 1 mg/kg) was 0%, the “salivation (%)” value ([6]; 1 mg/kg) was 0% and the “behavioral seizure (%)” value ([6]; 2 mg/kg) was 0, 0%. For the same compound, the “gait change (%)” value ([6]; 2 mg/kg) was 0%, the “max Racine score” value ([6]; 2 mg/kg) was 0, 0 and the “mortality (%)” value ([6]; 2 mg/kg) was 0%. For the same compound, the “salivation (%)” value ([6]; 2 mg/kg) was 0%, the “behavioral seizure (%)” value ([6]; 8 mg/kg) was 0, 0% and the “gait change (%)” value ([6]; 8 mg/kg) was 0%. For the same compound, the “max Racine score” value ([6]; 8 mg/kg) was 0, 0, the “mortality (%)” value ([6]; 8 mg/kg) was 0% and the “salivation (%)” value ([6]; 8 mg/kg) was 0%. The “behavioral seizure (%)” value ([6]; 16 mg/kg) was 0, 0%, the “gait change (%)” value ([6]; 16 mg/kg) was 50% and the “max Racine score” value ([6]; 16 mg/kg) was 0, 0. The “mortality (%)” value ([6]; 16 mg/kg) was 0%, the “salivation (%)” value ([6]; 16 mg/kg) was 25% and the “behavioral signs of neurological toxicity during infusion” value [7] was “not observed”. The “behavioral seizure (%)” value ([7]; 0.36 mg/kg) was 0, 0%, the “gait change (%)” value ([7]; 0.36 mg/kg) was 0% and the “max Racine score” value ([7]; 0.36 mg/kg) was 0, 0. The “mortality (%)” value ([7]; 0.36 mg/kg) was 0%, the “salivation (%)” value ([7]; 0.36 mg/kg) was 0% and the “behavioral seizure (%)” value ([7]; 0.72 mg/kg) was 0, 0%. The “gait change (%)” value ([7]; 0.72 mg/kg) was 0%, the “max Racine score” value ([7]; 0.72 mg/kg) was 0, 0 and the “mortality (%)” value ([7]; 0.72 mg/kg) was 0%. The “salivation (%)” value ([7]; 0.72 mg/kg) was 0%, the “behavioral seizure (%)” value ([7]; 1.44 mg/kg) was 0, 0% and the “gait change (%)” value ([7]; 1.44 mg/kg) was 0%. The “max Racine score” value ([7]; 1.44 mg/kg) was 0, 0, the “mortality (%)” value ([7]; 1.44 mg/kg) was 0% and the “salivation (%)” value ([7]; 1.44 mg/kg) was 0%. For the same compound, the “functional toxicity or loss of efficacy throughout the infusion period” value [8] was “no evidence of functional toxicity or loss of efficacy”, the “symptomatic rebound following cessation of infusion” value [8] was “without symptomatic rebound” and the “time by which all rats were deceased following cessation of infusion” value [8] was at most 12 h. The “time by which toxic signs resolved” value [8] was at most 14 days, the “time by which toxic signs stabilized” value [8] was at most 2 days and the “time to worsening of toxic signs following cessation of infusion” value [8] was 3 to 6 h. The “toxic signs compared to vehicle” value [8] was “improved”.
